Like-named read-outs stand apart in the source and are kept apart here.
Columns and labels:
[1] = molecular target: T1, HIV-1 Nef-SF2 (Human immunodeficiency virus type 1 group M subtype B, UniProt P03407); experiment: SPR binding to recombinant purified Nef protein
T1 construct: Full-length recombinant Nef proteins (HIV-1 Nef-SF2, HIV-1 Nef NL4-3 and SIV Nef-mac239) were expressed in E. coli; His-6 (N); made in house; host or cells: E. coli
Experimental: (§1) Interaction of inhibitor analogs with recombinant purified Nef proteins was performed using an SPR-based binding assay on a Reichert 4-channel SPR instrument. Full-length recombinant Nef proteins (HIV-1 Nef-SF2, HIV-1 Nef NL4-3 and SIV Nef-mac239) were expressed in E. coli and purified via N-terminal His-6 tags, ion-exchange chromatography, and gel filtration. Purity and identity of the Nef proteins was confirmed by SDS-PAGE and mass spectrometry. For SPR, Nef proteins were immobilized on carboxymethyl dextran biosensor chips (Reichert) in HBS-EP running buffer (10 mM HEPES, pH 7.4, 150 mM NaCl, 3 mM EDTA, 0.05% v/v Surfactant P20). Test compounds were injected in triplicate over a range of concentrations (typically 0.1 to 30 μM) at a rate of 10 μL/min for one min until equilibrium was reached, followed by dissociation in HBS-EP for 2 min. Kinetic rate constants were calculated from reference-corrected sensorgrams using the TraceDrawer software package (Reichert), and were best fit via 1:1 Langmuir or 2-step induced-fit binding models. Some initial SPR experiments were performed on a BIAcore T100 instrument (GE Healthcare) using four-channel CM5 biosensor chips, and ligand-protein interactions were best-fit using the BIAevaluations software (version 2.0.4).

[2] = test system: HIV-1 NL4-3; experiment: HIV-1 infectivity assay in TZM-bl reporter cells; assay type: cell-based; conditions: for inhibition at 3 µM: Human immunodeficiency virus 1, NL43, TZM-bl, read-out: % Inhibition of HIV-1 Infectivity at 3 μM relative to ΔNef
Experimental: The antiretroviral activity of Nef inhibitor analogs was assessed using the reporter cell line, TZM-bl, which are HeLa cells engineered to express CD4, HIV-1 co-receptors, as well as an HIV-1 LTR-luciferase reporter gene. TZM-bl cells (2.5×10^4) were plated in 96-well plates and allowed to adhere overnight prior to infection. Adherent cells and HIV-1NL4-3 (typically 5,000 pg p24/ml) were then incubated separately with compounds for 3 h and combined in a final volume of 200 μl in each well. Following incubation for 48 h at 37° C., the cells were lysed in 50 μl luciferase cell culture lysis reagent (Promega). Lysates (40 μl) were then transferred to white 96-well plates followed by 50 μl injections of luciferase reagent per well (Promega). Luminescence was then recorded with a delay time of 2 s and an integration period of 10 s. Cytotoxicity of each compound in the absence of HIV-1 was evaluated in TZM-bl cells using the CellTiter-Blue cell viability assay (Promega).

[3] = molecular target: SIV Nef-mac239 (Simian immunodeficiency virus, UniProt Q5QGG3); experiment: SPR binding to recombinant purified Nef protein
Experimental: as §1

[4] = molecular target: T2, HIV-1 Nef NL4-3 (Human immunodeficiency virus type 1 group M subtype B, UniProt P03406, A33V/T15A/T51N/V11I); experiment: SPR binding to recombinant purified Nef protein
T2 construct: Full-length recombinant Nef proteins (HIV-1 Nef-SF2, HIV-1 Nef NL4-3 and SIV Nef-mac239) were expressed in E. coli; His-6 (N); made in house; host or cells: E. coli
Experimental: as §1

[5] = HIV-1 Nef-SF2, KD, Biacore T100 instrument
[6] = HIV-1 Nef-SF2, KD, Reichert 4-Channel instrument, N/I = No Interaction up to 1 μM
[7] = Reichert 4-Channel instrument, N/I = No Interaction up to 1 μM
[8] = SPR, Reichert 4-Channel instrument, N/I = No Interaction up to 1 μM

Compound | Kd [1, 5] [nM] | inhibition at 3 µM [2] [%] | Kd [1, 6] [nM] | Kd [3] [nM] | Kd [4] [nM] | further results
Cc1ccc2c(=O)n(-c3ccc(F)c(C(=O)N4CCOCC4)c3)sc2n1 [Compound 2, 2-(4-fluoro-3-(morpholine-4-carbonyl)phenyl)-6-methylisothiazolo[5,4-b]pyridin-3(2H)-one] | 500 | 52 |  |  |  | 
CC1CN(C(=O)c2cc(-n3sc4ncccc4c3=O)ccc2Cl)CC(C)O1 (stereo not drawn) [Compound 13, 2-(4-chloro-3-(2,6-dimethylmorpholine-4-carbonyl)phenyl)isothiazolo[5,4-b]pyridin-3(2H)-one] |  | 100 | 380 | 1410 | 590 | 
O=C(c1cccc(-n2sc3ncccc3c2=O)c1)N1CCOCC1 [Compound 10, 2-(3-(morpholine-4-carbonyl)phenyl)isothiazolo[5,4-b]pyridin-3(2H)-one] |  | 88 |  |  | 250 | 
O=C(c1cc(N2Cc3ncccc3C2=O)ccc1Cl)N1CCOCC1 [Compound 17, 6-(4-chloro-3-(morpholine-4-carbonyl)phenyl)-6,7-dihydro-5H-pyrrolo[3,4-b]pyridin-5-one] |  | 16 |  |  |  | HIV-1 Nef-SF2, KD [1, 7]: N/I; SIV Nef-mac239, KD [3, 8]: N/I; HIV-1 Nef-NL43, KD [4, 8]: N/I
Cc1ccc2c(=O)n(-c3ccc(Cl)c(C(=O)N4CCOCC4)c3)sc2n1 [Compound 3, 2-(4-chloro-3-(morpholine-4-carbonyl)phenyl)-6-methylisothiazolo[5,4-b]pyridin-3(2H)-one] | 870 | 23 |  |  |  | 
O=C(c1cc(-n2sc3ncccc3c2=O)ccc1Cl)N1CCCCC1 [Compound 14, 2-(4-chloro-3-(piperidine-1-carbonyl)phenyl)isothiazolo[5,4-b]pyridin-3(2H)-one] |  | 82 | 1400 | 3110 | 1760 | 
O=C(c1cc(-n2sc3ncccc3c2=O)ccc1Cl)N1CCOCC1 [Compound 5, 2-(4-chloro-3-(morpholine-4-carbonyl)phenyl)isothiazolo[5,4-b]pyridin-3(2H)-one] | 162 | 99 | 2240 | 1510 | 7330 | 
O=C(Nc1ccc(Cl)cc1)c1cc(-n2sc3ncccc3c2=O)ccc1Cl [Compound 7, 2-chloro-N-(4-chlorophenyl)-5-(3-oxoisothiazolo[5,4-b]pyridin-2(3H)-yl)benzamide] | 120 | 58 |  | 280 | 190 | HIV-1 Nef-SF2, KD [1, 7]: N/I; SIV Nef-mac239, KD [3, 8]: N/I; HIV-1 Nef-NL43, KD [4, 8]: N/I
O=C(c1cc(-n2sc3nc(C(F)(F)F)ccc3c2=O)ccc1Cl)N1CCOCC1 [Compound 8, 2-(4-chloro-3-(morpholine-4-carbonyl)phenyl)-6-(trifluoromethyl)isothiazolo[5,4-b]pyridin-3(2H)-one] | 110 | 71 | 2340 | 780 | 310 | SIV Nef-mac239, KD [3, 8]: N/I; HIV-1 Nef-NL43, KD [4, 8]: N/I
O=C(c1cc(-n2sc3ncccc3c2=O)ccc1Cl)N1CCCC1 [Compound 12, 2-(4-chloro-3-(pyrrolidine-1-carbonyl)phenyl)isothiazolo[5,4-b]pyridin-3(2H)-one] |  | 100 | 1710 | 3660 | 960 | 
O=C(c1ccc(-n2sc3ncccc3c2=O)cc1)N1CCCC1 [Compound 9, 2-(4-(pyrrolidine-1-carbonyl)phenyl)isothiazolo[5,4-b]pyridin-3(2H)-one] |  | 38 |  |  | 40 | 
O=C(c1cc(-n2sc3ncccc3c2=O)ccc1F)N1CCOCC1 [Compound 1, 2-(4-fluoro-3-(morpholine-4-carbonyl)phenyl)isothiazolo[5,4-b]pyridin-3(2H)-one] | 1030 | 84 |  |  |  | 
Cc1ccc(-n2sc3ncccc3c2=O)cc1S(=O)(=O)N1CCCC1 [Compound 6, 2-(4-methyl-3-(pyrrolidin-1-ylsulfonyl)phenyl)isothiazolo[5,4-b]pyridin-3(2H)-one] |  | 28 | 2400 | 1600 | 8660 | 
Cc1ccc2c(=O)n(-c3ccc(C)c(S(=O)(=O)N4CCCC4)c3)sc2n1 [Compound 4, 6-methyl-2-(4-methyl-3-(pyrrolidin-1-ylsulfonyl)phenyl)isothiazolo[5,4-b]pyridin-3(2H)-one] | 260 | 32 |  |  |  | 
O=C(c1cc(-n2sc3ncccc3c2=O)ccc1Cl)N1CCC(F)(F)CC1 [Compound 16] |  | 60 | 9390 | 21100 | 56200 | 
2-(2-methyl-5-(morpholine-4-carbonyl)phenyl)isothiazolo[5,4-b]pyridin-3(2H)-one [Compound 15] |  |  |  |  |  | Kd ([1]; Reichert 4-Channel instrument, N/I = No Interaction up to 1 μM, read-out: HIV-1 Nef-SF2, KD): 390 nM; Kd ([3]; SPR, Reichert 4-Channel instrument, N/I = No Interaction up to 1 μM, read-out: SIV Nef-mac239, KD): 1280 nM; Kd ([4]; SPR, Reichert 4-Channel instrument, N/I = No Interaction up to 1 μM, read-out: HIV-1 Nef-NL43, KD): 140 nM; % Inhibition of HIV-1 Infectivity at 3 μM relative to ΔNef ([2]; 3 μM, TZM-bl reporter cells infected with HIV-1 NL4-3): 81%
CC1(C)CN(C(=O)c2cc(-n3sc4ncccc4c3=O)ccc2Cl)CCO1 [Compound 11, 2-(4-chloro-3-(2,2-dimethylmorpholine-4-carbonyl)phenyl)isothiazolo[5,4-b]pyridin-3(2H)-one] |  | 89 | 220 | 1690 | 210 | 

From patent publication US20200385406A1 (priority 2017, published 2020)
